Measured values reported in patent US12421210B2, “Fused bicyclic heterocycles as therapeutic agents” (NEW YORK UNIVERSITY, priority 2018, dated 2025).

Target: human NAMPT enzyme (His-hNAMPT) (Homo sapiens (Human), UniProt P43490)
Assay: NAMPT enzymatic inhibition assay (fluorescence, NADH product)
Format: biochemical
Details: [BPS]; read-out: NAMPT IC50 (μM) [BPS]

human NAMPT enzyme (His-hNAMPT), sequence (P43490 whole entry): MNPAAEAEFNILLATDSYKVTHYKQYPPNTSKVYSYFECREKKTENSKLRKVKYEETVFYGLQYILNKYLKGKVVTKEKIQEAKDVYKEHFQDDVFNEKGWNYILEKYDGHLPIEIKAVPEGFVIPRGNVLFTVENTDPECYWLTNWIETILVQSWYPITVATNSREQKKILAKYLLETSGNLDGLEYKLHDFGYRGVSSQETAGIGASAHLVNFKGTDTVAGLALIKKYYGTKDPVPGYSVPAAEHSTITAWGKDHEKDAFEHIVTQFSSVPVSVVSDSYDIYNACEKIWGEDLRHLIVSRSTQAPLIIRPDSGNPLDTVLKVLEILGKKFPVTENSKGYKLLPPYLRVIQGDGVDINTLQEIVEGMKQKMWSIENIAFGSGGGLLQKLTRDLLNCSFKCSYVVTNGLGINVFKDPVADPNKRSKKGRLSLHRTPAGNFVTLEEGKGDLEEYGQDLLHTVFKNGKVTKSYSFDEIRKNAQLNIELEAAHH

| SMILES | IC50 [µM] |
| --- | --- |
| CC(C)(C)OC(=O)N1C[C@H]2CC(CNC(=O)NCc3cccnc3)C[C@H]2C1 (some centres unmarked) [Example 268, tert-butyl 5-((3-(pyridin-3-ylmethyl)ureido)methyl)hexahydrocyclopenta[c]pyrrole-2(1H)-carboxylate] | 0.5 to 0.99 |
| Cc1nc(C)c(C(=O)N2C[C@@H]3[C@@H](CCNC(=O)/C=C/c4ccc(N)nc4)[C@@H]3C2)o1 [Example 87, (E)-3-(6-aminopyridin-3-yl)-N-(2-((1R,5S,6s)-3-(2,4-dimethyloxazole-5-carbonyl)-3-azabicyclo[3.1.0]hexan-6-yl)ethyl)acrylamide] | 0.01 to 0.49 |
| CC(C)(C)OC(=O)N1C[C@@H]2[C@@H](CNC(=O)/C=C/c3ccc(N)nc3)[C@@H]2C1 [Example 234, (1R,5S,6s)-tert-butyl 6-(((E)-3-(6-aminopyridin-3-yl)acrylamido)methyl)-3-azabicyclo[3.1.0]hexane-3-carboxylate] | 1 to 29 |
| O=C(/C=C/c1cccnc1)NCC[C@@H]1[C@H]2CN(Cc3ccccc3)C(=O)[C@@H]12 (racemic) [Example 257, (E)-N-(2-((1R,5S,6S)-3-benzyl-2-oxo-3-azabicyclo[3.1.0]hexan-6-yl)ethyl)-3-(pyridin-3-yl)acrylamide and (E)-N-(2-((1S,5R,6R)-3-benzyl-2-oxo-3-azabicyclo[3.1.0]hexan-6-yl)ethyl)-3-(pyridin-3-yl)acrylamide] | 0.01 to 0.49 |
| CC(C)(C)NC(=O)N1C[C@@H]2[C@@H](CCNC(=O)/C=C/c3cccnc3)[C@@H]2C1 [Example 75, (1R,5S,6s)-N-(tert-butyl)-6-(2-((E)-3-(pyridin-3-yl)acrylamido)ethyl)-3-azabicyclo[3.1.0]hexane-3-carboxamide] | 0.01 to 0.49 |
| CC(C)(C)NC(=O)N1C[C@@H]2[C@@H](CCNC(=O)c3ccc4nccn4c3)[C@@H]2C1 [Example 64, N-(2-((1R,5S,6s)-3-(tert-butylcarbamoyl)-3-azabicyclo[3.1.0]hexan-6-yl)ethyl)imidazo[1,2-a]pyridine-6-carboxamide] | 0.01 to 0.49 |
| O=C(NCC[C@@H]1[C@H]2CN(C(=O)Nc3ccccc3)C[C@@H]12)c1cnc2nccn2c1 [Example 78, N-(2-((1R,5S,6s)-3-(phenylcarbamoyl)-3-azabicyclo[3.1.0]hexan-6-yl)ethyl)imidazo[1,2-a]pyrimidine-6-carboxamide] | 0.5 to 0.99 |
| Nc1ccc(/C=C/C(=O)NCC[C@@H]2[C@H]3CN(C(=O)C4CCOCC4)C[C@@H]23)cn1 [Example 95, (E)-3-(6-aminopyridin-3-yl)-N-(2-((1R,5S,6s)-3-(tetrahydro-2H-pyran-4-carbonyl)-3-azabicyclo[3.1.0]hexan-6-yl)ethyl)acrylamide] | 0.01 to 0.49 |
| O=C(/C=C/c1cccnc1)NCC[C@@H]1[C@H]2CN(C(=O)c3ccccc3)C[C@@H]12 [Example 22, (E)-N-(2-((1R,5S,6s)-3-benzoyl-3-azabicyclo[3.1.0]hexan-6-yl)ethyl)-3-(pyridin-3-yl)acrylamide] | 0.01 to 0.49 |
| Nc1ccc(/C=C/C(=O)NCC[C@@H]2[C@H]3CN(C(=O)NC4CCOCC4)C[C@@H]23)cn1 [Example 32, (1R,5S,6s)-6-(2-((E)-3-(6-aminopyridin-3-yl)acrylamido)ethyl)-N-(tetrahydro-2H-pyran-4-yl)-3-azabicyclo[3.1.0]hexane-3-carboxamide] | 0.01 to 0.49 |
| Nc1ccc(/C=C/C(=O)NCC[C@@H]2[C@H]3CN(c4nc5ccccc5s4)C[C@@H]23)cn1 [Example 190, (E)-3-(6-aminopyridin-3-yl)-N-(2-((1R,5S,6s)-3-(benzo[d]thiazol-2-yl)-3-azabicyclo[3.1.0]hexan-6-yl)ethyl)acrylamide] | 0.01 to 0.49 |
| COc1cccc(N2C[C@@H]3[C@@H](CCNC(=O)c4cc5ccncc5o4)[C@@H]3C2)c1 [Example 130, N-(2-((1R,5S,6s)-3-(3-methoxyphenyl)-3-azabicyclo[3.1.0]hexan-6-yl)ethyl)furo[2,3-c]pyridine-2-carboxamide] | 0.01 to 0.49 |
| CC(C)(C)OC(=O)N1C[C@@H]2[C@H](C1)[C@H]2CC1(NC(=O)/C=C/c2ccc(N)nc2)CC1 [Example 241, (1R,5S,6s)-tert-butyl 6-((1-((E)-3-(6-aminopyridin-3-yl)acrylamido)cyclopropyl)methyl)-3-azabicyclo[3.1.0]hexane-3-carboxylate] | 1 to 29 |
| Cc1nc(C)c(C(=O)N2C[C@@H]3[C@@H](CCNC(=O)c4cnc5nccn5c4)[C@@H]3C2)o1 [Example 108, N-(2-((1R,5S,6s)-3-(2,4-dimethyloxazole-5-carbonyl)-3-azabicyclo[3.1.0]hexan-6-yl)ethyl)imidazo[1,2-a]pyrimidine-6-carboxamide] | 0.01 to 0.49 |

Same assay, conditions: [HDB]; read-out: NAMPT IC50 (μM) [HDB]

| SMILES | IC50 [µM] |
| --- | --- |
| O=C(/C=C/c1cccnc1)NCC[C@@H]1[C@H]2CN(c3nc(OCc4ccccc4)ncc3F)C[C@@H]12 [Example 308, (E)-N-(2-((1R,5S,6s)-3-(2-(benzyloxy)-5-fluoropyrimidin-4-yl)-3-azabicyclo[3.1.0]hexan-6-yl)ethyl)-3-(pyridin-3-yl)acrylamide] | < 0.01 |
| CC(c1ncccn1)N1C[C@@H]2[C@@H](CCNC(=O)/C=C/c3cccnc3)[C@@H]2C1 (stereo partly drawn) [Example 315, (E)-3-(pyridin-3-yl)-N-(2-((1R,5S,6s)-3-(1-(pyrimidin-2-yl)ethyl)-3-azabicyclo[3.1.0]hexan-6-yl)ethyl)acrylamide] | 0.01 to 0.49 |
| CC(c1cccnc1)N1C[C@@H]2[C@@H](CCNC(=O)/C=C/c3cccnc3)[C@@H]2C1 (stereo partly drawn) [Example 320, (E)-3-(pyridin-3-yl)-N-(2-((1R,5S,6s)-3-(1-(pyridin-3-yl)ethyl)-3-azabicyclo[3.1.0]hexan-6-yl)ethyl)acrylamide] | < 0.01 |
| CC(c1ccccn1)N1C[C@@H]2[C@@H](CCNC(=O)/C=C/c3cccnc3)[C@@H]2C1 (stereo partly drawn) [Example 321, (E)-N-(2-((1R,5S,6s)-3-(1-(pyridin-2-yl)ethyl)-3-azabicyclo[3.1.0]hexan-6-yl)ethyl)-3-(pyridin-3-yl)acrylamide] | 0.01 to 0.49 |
| CC(c1ccc(F)cc1)N1C[C@@H]2[C@@H](CCNC(=O)/C=C/c3cccnc3)[C@@H]2C1 (stereo partly drawn) [Example 322, (E)-N-(2-((1R,5S,6s)-3-(1-(4-fluorophenyl)ethyl)-3-azabicyclo[3.1.0]hexan-6-yl)ethyl)-3-(pyridin-3-yl)acrylamide] | 0.01 to 0.49 |
| O=C(/C=C/c1cccnc1)NCC[C@@H]1[C@H]2CN(Cc3ccccc3Cl)C[C@@H]12 [Example 300, (E)-N-(2-((1R,5S,6s)-3-(2-chlorobenzyl)-3-azabicyclo[3.1.0]hexan-6-yl)ethyl)-3-(pyridin-3-yl)acrylamide] | 0.01 to 0.49 |
| O=C(/C=C/c1cccnc1)NCC[C@@H]1[C@H]2CN(Cc3ncccn3)C[C@@H]12 [Example 294, (E)-3-(Pyridin-3-yl)-N-(2-((1R,5S,6s)-3-(pyrimidin-2-ylmethyl)-3-azabicyclo[3.1.0]hexan-6-yl)ethyl)acrylamide] | 0.01 to 0.49 |
| CC(C)(C)OC(=O)N1C[C@@H]2[C@H](C1)[C@@]2(F)CCNC(=O)/C=C/c1cccnc1 [Example 291, (1R,5S,6r)-tert-butyl 6-fluoro-6-(2-((E)-3-(pyridin-3-yl)acrylamido)ethyl)-3-azabicyclo[3.1.0]hexane-3-carboxylate] | 0.01 to 0.49 |
| O=C(/C=C/c1cccnc1)NCC[C@@H]1[C@H]2CN(c3ccnc(OC(F)F)c3)C[C@@H]12 [Example 299, (E)-N-(2-((1R,5S,6s)-3-(2-(difluoromethoxy)pyridin-4-yl)-3-azabicyclo[3.1.0]hexan-6-yl)ethyl)-3-(pyridin-3-yl)acrylamide] | < 0.01 |
